Counter-ions that a name gives are not always drawn.
Target: T1, recombinant IRAK-4 kinase (Homo sapiens, UniProt Q9NWZ3)
T1 construct: purchased Millipore, USA
T1 sequence (Q9NWZ3 1-460): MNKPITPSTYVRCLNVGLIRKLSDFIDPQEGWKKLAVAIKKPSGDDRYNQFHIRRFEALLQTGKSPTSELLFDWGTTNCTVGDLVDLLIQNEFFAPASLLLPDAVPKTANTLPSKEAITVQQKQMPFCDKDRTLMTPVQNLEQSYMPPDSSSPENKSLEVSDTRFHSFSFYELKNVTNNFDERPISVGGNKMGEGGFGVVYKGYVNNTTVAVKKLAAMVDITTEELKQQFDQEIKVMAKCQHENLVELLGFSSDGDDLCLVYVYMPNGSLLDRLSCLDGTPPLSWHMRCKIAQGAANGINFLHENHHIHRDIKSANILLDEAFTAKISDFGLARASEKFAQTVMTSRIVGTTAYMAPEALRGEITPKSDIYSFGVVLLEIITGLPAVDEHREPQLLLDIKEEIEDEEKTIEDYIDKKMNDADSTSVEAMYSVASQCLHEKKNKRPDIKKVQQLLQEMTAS
Assay: IRAK-4 biochemical assay (TR-FRET)
Settings: IRAK-4 enzyme, 20 μM ATP; for inhibition at 0.1 µM: compound at 0.1 μM; for inhibition at 1 µM: compound at 1 μM; for IC50: dose response
Experimental: Compounds were tested for their potential to inhibit IRAK-4 enzyme in a TR-FRET assay using recombinant IRAK-4 kinase from Millipore, USA. The assay buffer was 50 mM Tris-HCl pH 7.5, 20 mM MgCl2, 1 mM EGTA, 2 mM DTT, 3 mM MnCl2 and 0.01% Tween 20.5 ng of IRAK-4 kinase was used for the assay. After pre-incubation of enzyme with test compound for 30 minutes at room temperature, a substrate mixture containing 100 nM Biotin Histone H3 (Millipore, USA) and 20 μM ATP (Sigma, USA) was added and the reaction was incubated for 30 min. Post incubation, the reaction was stopped by the addition of stop mix containing 40 mM EDTA, 1 nM of Europium-Anti-Phospho-Histone H3 (Ser10) antibody (Perkin Elmer, USA) and 20 nM SureLight Allophycocyanin-Streptavidin (Perkin Elmer, USA). The fluorescence emission at 615 nm and 665 nm were measured at an excitation of 340 nm and the percent inhibition was estimated from the ratio of the fluorescence intensities [(F665/F615)×10000]. […] The IC50 values were estimated by fitting the dose-response data to sigmoidal dose response (variable slope), curve fitting program using Graphpad Prism software Version 6.01.

SMILES	inhibition at 0.1 µM	inhibition at 1 µM	IC50
Cc1nn(C)c2cc(NC(=O)c3coc(-c4ccnc(N)c4)n3)c(N3CCC(CO)CC3)cc12 [Example 43, 2-(2-aminopyridin-4-yl)—N—(5-(4-(hydroxymethyl)piperidin-1-yl)-1,3-dimethyl-1H-indazol-6-yl)oxazole-4-carboxamide hydrochloride]	0%	15%	
CN1CCN(c2nc(C(=O)Nc3cc4c(cnn4C)cc3N3CC[C@H](O)C3)co2)CC1 [Example 30, (S)—N—(5-(3-hydroxypyrrolidin-1-yl)-1-methyl-1H-indazol-6-yl)-2-(4-methylpiperazin-1-yl)oxazole-4-carboxamide hydrochloride]	0%	20%	
Cc1cc(-c2nc(C(=O)Nc3cc4c(cnn4C)cc3N3CCC(CO)CC3)co2)ccn1 [Example 20, N-(5-(4-(hydroxymethyl)piperidin-1-yl)-1-methyl-1H-indazol-6-yl)-2-(2-methylpyridin-4-yl)oxazole-4-carboxamide]	96%	97%	< 100 nM
Cc1cc(-c2nc(C(=O)Nc3cc4c(cnn4C)cc3N3CC[C@@H](O)C3)co2)ccn1 [Example 22, (R)—N—(5-(3-hydroxypyrrolidin-1-yl)-1-methyl-1H-indazol-6-yl)-2-(2-methylpyridin-4-yl)oxazole-4-carboxamide]	89%	96%	< 100 nM
Cc1cc(-c2nc(C(=O)Nc3cc4c(cnn4C)cc3N3CCCCC3)co2)ccn1 [Example 1, N-(1-methyl-5-(piperidin-1-yl)-1H-indazol-6-yl)-2-(2-methylpyridin-4-yl)oxazole-4-carboxamide hydrochloride]		96%	< 100 nM
Cn1ncc2cc(N3CCCCC3)c(NC(=O)c3coc(N4CC[C@H](N)C4)n3)cc21 [Example 4, (S)-2-(3-aminopyrrolidin-1-yl)—N—(1-methyl-5-(piperidin-1-yl)-1H-indazol-6-yl)oxazole-4-carboxamide]		84%	100 to 250 nM
Cc1cc(-c2nc(C(=O)Nc3cc4c(cnn4C)cc3N3CCCC(O)C3)co2)ccn1 (stereo not drawn) [Example 12, N—(5-(3-hydroxypiperidin-1-yl)-1-methyl-1H-indazol-6-yl)-2-(2-methylpyridin-4-yl)oxazole-4-carboxamide hydrochloride]	94%		< 100 nM
Cn1ncc2cc(N3CC[C@@H](O)C3)c(NC(=O)c3cccc(N4CC[C@H](O)C4)n3)cc21 [Example 24, 6-((S)-3-hydroxypyrrolidin-1-yl)—N—(5-((R)-3-hydroxypyrrolidin-1-yl)-1-methyl-1H-indazol-6-yl)picolinamide]	33%	80%	100 to 250 nM
Cn1ncc2cc(N3CC[C@H](O)C3)c(NC(=O)c3cnn4cccnc34)cc21 [Example 48, (S)—N—(5-(3-hydroxypyrrolidin-1-yl)-1-methyl-1H-indazol-6-yl)pyrazolo[1,5-a]pyrimidine-3-carboxamide hydrochloride]	25%	80%	> 250 nM
Cn1ncc2cc(N3CC[C@H](O)C3)c(NC(=O)c3coc(-c4ccnc(C5CC5)c4)n3)cc21 [Example 46, (S)-2-(2-cyclopropylpyridin-4-yl)—N—(5-(3-hydroxypyrrolidin-1-yl)-1-methyl-1H-indazol-6-yl)oxazole-4-carboxamide hydrochloride]	93%	97%	< 100 nM
Cn1ncc2cc(N3CC[C@H](O)C3)c(NC(=O)c3coc(-c4ccnc(N)c4)n3)cc21 [Example 18, (S)-2-(2-aminopyridin-4-yl)—N—(5-(3-hydroxypyrrolidin-1-yl)-1-methyl-1H-indazol-6-yl)oxazole-4-carboxamide]	94%	96%	< 100 nM
CCn1ncc2cc(N3CC[C@H](O)C3)c(NC(=O)c3coc(-c4ccnc(C)c4)n3)cc21 [Example 32, (S)—N—(1-ethyl-5-(3-hydroxypyrrolidin-1-yl)-1H-indazol-6-yl)-2-(2-methylpyridin-4-yl)oxazole-4-carboxamide hydrochloride]	62%	95%	< 100 nM
Cn1cc2cc(N3CCCCC3)c(NC(=O)c3cccc(N4CC[C@H](N)C4)n3)cc2n1 [Example 7, (S)-6-(3-aminopyrrolidin-1-yl)—N—(2-methyl-5-(piperidin-1-yl)-2H-indazol-6-yl)picolinamide]	93%	83%	> 250 nM
Cn1ncc2cc(N3CCCCC3)c(NC(=O)c3cccc(N4CC[C@H](O)C4)n3)cc21 [Example 9, (S)-6-(3-hydroxypyrrolidin-1-yl)—N—(1-methyl-5-(piperidin-1-yl)-1H-indazol-6-yl)picolinamide]	83%	78%	> 250 nM
Cn1cc2cc(N3CCCCC3)c(NC(=O)c3cccc(N4CC[C@H](O)C4)n3)cc2n1 [Example 3, (S)-6-(3-hydroxypyrrolidin-1-yl)—N—(2-methyl-5-(piperidin-1-yl)-2H-indazol-6-yl)picolinamide]	90%	73%	> 250 nM
Cn1cc2cc(N3CCC(O)CC3)c(NC(=O)c3cnn4cccnc34)cc2n1 [Example 47, N—(5-(4-hydroxypiperidin-1-yl)-2-methyl-2H-indazol-6-yl)pyrazolo[1,5-a]pyrimidine-3-carboxamide hydrochloride]	34%	89%	100 to 250 nM
Cc1cc(-c2nc(C(=O)Nc3cc4c(cnn4C4CC4)cc3N3CC[C@H](O)C3)co2)ccn1 [Example 33, (S)—N—(1-cyclopropyl-5-(3-hydroxypyrrolidin-1-yl)-1H-indazol-6-yl)-2-(2-methylpyridin-4-yl)oxazole-4-carboxamide hydrochloride]	25%	87%	100 to 250 nM
Cc1cc(-c2nc(C(=O)Nc3cc4c(cnn4C)cc3N3CCC(O)(CO)CC3)co2)ccn1 [Example 40, N-(5-(4-hydroxy-4-(hydroxymethyl)piperidin-1-yl)-1-methyl-1H-indazol-6-yl)-2-(2-methylpyridin-4-yl)oxazole-4-carboxamide]	95%	98%	< 100 nM
CC(=O)Nc1cc(-c2nc(C(=O)Nc3cc4c(cnn4C)cc3N3CC[C@H](O)C3)co2)ccn1 [Example 15]	83%	99%	< 100 nM
CCc1cc(-c2nc(C(=O)Nc3cc4c(cnn4C)cc3N3CC[C@H](O)C3)co2)ccn1 [Example 42, (S)-2-(2-ethylpyridin-4-yl)—N—(5-(3-hydroxypyrrolidin-1-yl)-1-methyl-1H-indazol-6-yl)oxazole-4-carboxamide hydrochloride]	83%	97%	< 100 nM
Cc1cc(-c2nc(C(=O)Nc3cc4c(cnn4C)cc3N3CCC(F)CC3)co2)ccn1 [Example 19, N—(5-(4-fluoropiperidin-1-yl)-1-methyl-1H-indazol-6-yl)-2-(2-methylpyridin-4-yl)oxazole-4-carboxamide]	94%	97%	< 100 nM
Cc1cc(-c2nc(C(=O)Nc3cc4nn(C)cc4cc3N3CCCCC3)co2)ccn1 [Example 2, N—(2-methyl-5-(piperidin-1-yl)-2H-indazol-6-yl)-2-(2-methylpyridin-4-yl)oxazole-4-carboxamide hydrochloride]		98%	< 100 nM
Cc1cc(-c2nc(C(=O)Nc3cc4c(cnn4C)cc3N3CC[C@H](O)C3)co2)cc(C)n1 [Example 21, (S)-2-(2,6-dimethylpyridin-4-yl)—N—(5-(3-hydroxypyrrolidin-1-yl)-1-methyl-1H-indazol-6-yl)oxazole-4-carboxamide]	41%	84%	100 to 250 nM
Cn1ncc2cc(N3CC[C@H](O)C3)c(NC(=O)c3cccc(N4CC[C@H](O)C4)n3)cc21 [Example 25, 6-((S)-3-hydroxypyrrolidin-1-yl)—N—(5-((S)-3-hydroxypyrrolidin-1-yl)-1-methyl-1H-indazol-6-yl)picolinamide]	24%	71%	> 250 nM

From patent US20170152263A1, “Substituted Indazole Compounds as IRAK4 Inhibitors” (AURIGENE DISCOVERY TECHNOLOGIES LIMITED, priority 2014, published 2017)
